Reference: patent US20130211371A1, “FORMULATIONS AND METHODS OF TREATMENT OF SKIN CONDITIONS” (Hy Biopharma, Inc., priority 2010, published 2013)
Marks after values point to notes of the source that are not given here.

Tests used:
[1] = cited from earlier work
[2] = test system: MF lesions; assay: Phase II study, topical hypericin and visible light, MF arm; type: in vivo, human; conditions: 6 weeks
Protocol: (§1) This study is designed to evaluate the safety and efficacy of topical hypericin in concentrations of 0.1% and 0.25% under occlusion for 24 hours followed by administration of visible light in doses ranging from 8 to 20 J/cm^2 twice weekly for 6 weeks for the treatment of psoriasis or MF. One of the four centers involved in the study administered topical hypericin in concentrations of 0.05 and 0.1%. The concentration of hypericin and the dose of light were based upon the Phase I study described above with normal volunteers.
A standardized topical amount of hypericin in either ointment or liquid formula was applied to defined plaques on the skin of volunteer subjects. […]
(§2) Skin reactions were evaluated each week immediately after irradiation and again at 48 and 72 hours later. The sites of irradiation were examined twice per week thereafter and all changes; e.g., erythema, edema, desquamation, pigmentation, etc, were recorded.
Lesion responses in this study were scored in accordance with the following scales at each patient evaluation:lesional CR=complete regression of the treated lesion; PR=>50% decrease in lesional area during treatment; Stable=<50% decrease in size or <25% increase in size during therapy; Progression=>25% increase in size during therapy. […] If so, the patient was scored as a responder for that lesion. […]

[3] = test system: psoriasis lesions; assay: Phase II study, topical hypericin and visible light, psoriasis arm; type: in vivo, human; conditions: All Ointment + Liquid, 6 weeks
Protocol: as §1
A standardized topical amount of hypericin in either ointment or liquid formula was applied to defined plaques on the skin of volunteer subjects. The amount of hypericin in each topical application was as follows: 0.05%=0.005 mg/cm^2; 0.1%=0.01 mg/ cm^2, and 0.25%=0.025 mg/ cm^2.
Each hypericin treatment or placebo was applied twice weekly for a period of 24 hours prior to irradiation. Each application site was covered by non-absorbing Webril cotton of equal area and occluded with occlusive tape (Blenderm, 3M); excess drug was removed prior to irradiation (24 hours post drug application).
Irradiation was undertaken using visible fluorescent bulbs (590-650 nm) (GE cool white fluorescent bulbs, 20-watt fluorescent tubes housed in a reflecting bank) for a period not to exceed 15 minutes (total number of joules approximately 5/cm^2). The light dose was administered twice weekly, separated by at least one day.
The light dose was increased once weekly by 1 joule/cm^2 until symptoms or signs of phototoxicity appeared. At that point, the dose could either be maintained or reduced by 1 joule/cm^2 if phototoxicity was pronounced (skin erythema of greater than 1+[minimal visible erythema).
as §2
Lesion responses in this study were scored in accordance with the following scales at each patient evaluation:lesional CR=complete regression of the treated lesion; PR=>50% decrease in lesional area during treatment; Stable=<50% decrease in size or <25% increase in size during therapy; Progression=>25% increase in size during therapy. The success/failure criterion for each lesion on each patient was whether there was a 50% or better improvement in the lesion area at the end of the 6-week treatment cycle. If so, the patient was scored as a responder for that lesion. Table 1 indicates the rating criteria for patient response.
All patients receiving treatment for MF were treated with the ointment preparation. For patients with psoriasis, 5 patients were treated with 0.1% and 0.25% aqueous solutions of hypericin in dimethyl sulfoxide (DMSO) and 6 patients were treated with the USP
Hydrophilic Ointment preparations. The liquid dosage form consisted of dissolving either 0.2 mL or 0.5 mL hypericin stock solution (polyethylene glycol solution) in 44.8 or 44.5 mL of 50% DMSO/water and mixing with a magnetic stirrer.
The response or lack of response, of each lesion treated with either placebo ointment or with a hypericin-containing ointment was analyzed as a binomial (i.e., yes/no) distribution.
This was an appropriate analysis for response which was quantal in nature. For the null hypothesis (no treatment response) it was assumed that spontaneous resolution of the lesion by the protocol specified 6-week time point would not occur. That is, the true probability of spontaneous lesion regression (defined as <50% of its baseline size for CTCL and to <50% of its combined baseline score for psoriasis lesions) was taken as zero (0%). For the MF analysis, a repeated measures logistic regression was employed to obtain p-values. For analysis of the psoriasis data, a likelihood ratio chi-square test was employed.

[4] = Phase I clinical trial, cutaneous phototoxicity of topical hypericin with visible light; type: in vivo, human
[5] = Phase II study, adverse events; type: in vivo, human
Protocol: as §2

Cc1cc(O)c2c(=O)c3c(O)cc(O)c4c5c(O)cc(O)c6c(=O)c7c(O)cc(C)c8c1c2c(c34)c(c78)c65 [Hypericin, 4,5,7,4′,5′,7′ -dimethyl-meso naphthodiantbrone]
half life ([1]; in vivo): 20 to 24 h | bioavailable following oral administration ([1]; oral): about 20% | Percent Responders, Hypericin 0.1% Dose (MF) ([2]; ointment 0.1%): 41.7% | Percent Responders, Hypericin 0.25% Dose (MF) ([2]; ointment 0.25%): 55.6% | Percent Responders, Response to 0.05% Dose (psoriasis) ([3]; 0.05%): 9.1% | Responders/Total, Response to 0.05% Dose (psoriasis) ([3]; 0.05%): 1/11 | Percent Responders, Hypericin 0.1% Dose (psoriasis) ([3]; 0.1%): 36.4^a,b % | Responders/Total, Hypericin 0.1% Dose (psoriasis) ([3]; 0.1%): 4/11 | Percent Responders, Hypericin 0.1% Dose (psoriasis) ([3]; 0.1%, listed as hypericin): 36.4% | Percent Responders, Hypericin 0.25% Dose (psoriasis) ([3]; 0.25%): 45.4%^b | Responders/Total, Hypericin 0.25% Dose (psoriasis) ([3]; 0.25%): 5/11 | Percent Responders, Hypericin 0.25% Dose (psoriasis) ([3]; 0.25%, listed as hypericin): 45.4% | Percent Responders, All Hypericin Responders (psoriasis) ([3]; any dose): 54.6%^b | Responders/Total, All Hypericin Responders (psoriasis) ([3]; any dose): 6/11 | Cutaneous reactions at 0.02% ([4]; 0.02% hypericin, any dose of light): no cutaneous reactions | Cutaneous photosensitivity at 0.1% and 0.5% ([4]; topical under occlusion, visible light 24 hours after application): causes cutaneous photosensitivity | Deaths or serious adverse events / overall safety ([5]; MF and psoriasis patients): No deaths or serious adverse events | Reported adverse events ([5]; at the application site after visible light): mild to moderate burning, itching, erythema, and pruritus at the application site
